The record followed here is US20240254119A1 (THIRD HARMONIC BIO, INC., priority 2022, published 2024).

Each structure is given as a SMILES string.

The target in data set [1] is T1, wtKIT (Homo sapiens, UniProt P10721).
T1 construct: 1888289AM in the reaction mixtures
Nature of the data set: HTRF biochemical assay, wtKIT (phosphorylation of a peptide substrate). To be noted: Table 4. The procedure, abridged:
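wtKIT (5.0 nM) phosphorylating 1 µM FAM-labelled peptide with 400 µM ATP and 10 mM MnCl2 in 100 mM HEPES pH 7.5, 1% DMSO, 3 h at 25 °C. EDTA quench; phosphopeptide detected with anti-phosphotyrosine antibody by HTRF. Enzyme titrated for 10-20% substrate conversion.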
Background: In TR-FRET formats the signal depends on donor and acceptor labels being close together.

In data set [2] the test system is Caco-2 cells. Nature of the data set: Caco-2 permeability assay. It counts as in vitro ADME. To be noted: for Caco-2: Papp A-B: Caco-2, apical to basolateral. How it is done: Exemplary compounds were tested for cell permeability in Caco-2, MDCKII-MDR1 and MDCKII-BCRP cell lines with efflux transporter engagement inferred from the efflux ratios determined. Procedures and results are described below. […] This feature of certain compounds is in part due to efflux transporter engagement. See, for instance, exemplary such compounds included in data tables below.
The transport buffer in the study was HBSS with 10.0 mM HEPES at pH 7.40±0.05. Test compound was tested at 2.00 μM bi-directionally in duplicate. Digoxin was tested at 10.0 μM bi-directionally in duplicate, while nadolol and metoprolol were tested at 2.00 μM in A to B direction in duplicate. Final DMSO concentration was adjusted to less than 1%. The plate was incubated for 2 hours in CO2 incubator at 37±1° C., with 5% CO2 at saturated humidity without shaking. And all samples after mixed with acetonitrile containing internal standard were centrifuged at 3200×g for 10 min. For nadolol and metoprolol, 200 μL supernatant solution was diluted with 600 μL ultra-pure water for LC-MS/MS analysis. For digoxin and test compounds, 200 μL supernatant solution was diluted with 200 μL ultra-pure water for LC-MS/MS analysis. Concentrations of test and control compounds in starting solution, donor solution, and receiver solution were quantified by LC-MS/MS methodologies, using peak area ratio of analyte/internal standard.
After transport assay, lucifer yellow rejection assay was applied to determine the Caco-2 cell monolayer integrity.
[…] And permeation of lucifer yellow through the monolayer was measured to evaluate the cellular integrity.
The apparent permeability coefficient Papp (cm/s) was calculated using the equation: Papp=(dCr/dt)×Vr/(A×C0), where dCr/dt is the cumulative concentration of compound in the receiver chamber as a function of time (μM/s); Vr is the solution volume in the receiver chamber (0.075 mL on the apical side, 0.25 mL on the basolateral side); A is the surface area for the transport, i.e. 0.0804 cm^2 for the area of the monolayer; C0 is the initial concentration in the donor chamber (μM).
The efflux ratio was calculated using the equation: Efflux Ratio=Papp (BA)/Papp(AB).
Percent recovery was calculated using the equation: % Solution Recovery=100×[(Vr×Cr)+(Vd×Cd)]/(Vd×C0), where Vd is the volume in the donor chambers (0.075 mL on the apical side, 0.25 mL on the basolateral side); Cd and Cr are the final concentrations of transport compound in donor and receiver chambers, respectively.

T1 sequence (P10721 26-976): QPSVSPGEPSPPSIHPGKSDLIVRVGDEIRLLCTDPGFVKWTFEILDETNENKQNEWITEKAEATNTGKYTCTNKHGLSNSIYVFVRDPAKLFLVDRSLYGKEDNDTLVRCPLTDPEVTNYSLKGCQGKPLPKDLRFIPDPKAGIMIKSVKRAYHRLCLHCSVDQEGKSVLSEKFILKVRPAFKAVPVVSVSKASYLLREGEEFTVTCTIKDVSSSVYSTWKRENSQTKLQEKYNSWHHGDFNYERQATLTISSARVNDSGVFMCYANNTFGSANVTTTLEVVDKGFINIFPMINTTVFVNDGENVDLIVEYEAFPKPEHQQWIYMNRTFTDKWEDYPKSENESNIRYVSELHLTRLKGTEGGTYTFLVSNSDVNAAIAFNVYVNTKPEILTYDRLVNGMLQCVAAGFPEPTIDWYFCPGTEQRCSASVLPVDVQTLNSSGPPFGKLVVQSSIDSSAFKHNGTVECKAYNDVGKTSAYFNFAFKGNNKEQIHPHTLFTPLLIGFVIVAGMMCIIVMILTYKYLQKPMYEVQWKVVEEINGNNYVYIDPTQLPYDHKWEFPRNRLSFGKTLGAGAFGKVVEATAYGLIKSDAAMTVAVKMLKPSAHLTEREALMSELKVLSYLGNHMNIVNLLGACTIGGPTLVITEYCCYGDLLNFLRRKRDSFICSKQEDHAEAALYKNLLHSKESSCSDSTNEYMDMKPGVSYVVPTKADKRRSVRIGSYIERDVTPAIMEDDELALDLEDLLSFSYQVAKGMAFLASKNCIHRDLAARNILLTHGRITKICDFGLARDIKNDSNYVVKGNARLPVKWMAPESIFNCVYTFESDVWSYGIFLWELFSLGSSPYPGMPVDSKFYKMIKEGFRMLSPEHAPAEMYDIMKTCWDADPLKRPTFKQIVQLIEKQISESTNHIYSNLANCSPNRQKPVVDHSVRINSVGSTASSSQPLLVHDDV

With `COC(=O)N1CC(c2nc(-c3ccc(Cl)c(NC(=O)c4cnc5ccccn45)c3)no2)C1` [Compound I-339], the IC50 in data set [1] was at most 50 nM. Further, in data set [2], the “Caco-2: Efflux Ratio” value is given as 0.56 and the “Caco-2: Papp A-B” value is listed as 22.2 10^−6 cm/s.

Regarding `COC(=O)N1CC(c2nc(-c3ccc(C)c(NC(=O)c4cnc5cc(OC[C@@H](C)O)ccn45)c3)no2)C1` [Compound I-263], the IC50 in data set [1] was at most 50 nM. In the case of `Cc1ccc(-c2noc(C3CN(C(=O)CO)C3)n2)cc1NC(=O)c1cnc2ccccn12` [Compound I-287], in data set [2], the “Caco-2: Efflux Ratio” value is on record as 135 and the “Caco-2: Papp A-B” value was 0.13 10^−6 cm/s. For the molecule `Cc1ccc(-c2noc(C3(N)CC4(CC(F)(F)C4)C3)n2)cc1NC(=O)c1cnc2ccccn12` [Compound I-307], in data set [2], the “Caco-2: Efflux Ratio” value is 1.79 and the “Caco-2: Papp A-B” value is 9.28 10^−6 cm/s. `Cc1ccc(-c2noc([C@H]3C[C@@H]3F)n2)cc1NC(=O)c1cnn2ccccc12` [Compound I-109]: in data set [1], the IC50 is at most 50 nM. For the molecule `COc1ccn2c(C(=O)Nc3cc(-c4noc(C5CC(F)(F)C5)n4)ccc3C)cnc2c1` [Compound I-96], in data set [1], the IC50 was at most 50 nM. Regarding `COC(=O)N1CC(c2nc(-c3ccc(C)c(NC(=O)c4cnc5cc(OC[C@H](C)O)ccn45)c3)no2)C1` [Compound I-262], the IC50 in data set [1] was at most 50 nM.

`Cc1ccc(-c2noc(C3CC(OCCF)C3)n2)cc1NC(=O)c1cnc2ccccn12` (centres unmarked) [Compound I-369]: the IC50 in data set [1] was at most 50 nM. In data set [2], the “Caco-2: Efflux Ratio” value is recorded as 0.77 and the “Caco-2: Papp A-B” value is 20.6 10^−6 cm/s. Turning to `Cc1ccc(-c2noc(C(C)O)n2)cc1NC(=O)c1cnc2ccccn12` (racemic) [Compound I-364], in data set [2], the “Caco-2: Efflux Ratio” value was 3.09 and the “Caco-2: Papp A-B” value is 8.39 10^−6 cm/s. Turning to `Cc1ccc(-c2noc(CC(C)(C)O)n2)cc1NC(=O)c1cnc2ccccn12` [Compound I-336], in data set [1], the IC50 was 50 to 500 nM. In data set [2], the “Caco-2: Efflux Ratio” value turned out to be 2.62 and the “Caco-2: Papp A-B” value was 9.39 10^−6 cm/s.

Turning to `Cc1ccc(-c2noc(CC(O)C(F)F)n2)cc1NC(=O)c1cnc2ccccn12` (centres unmarked) [Compound I-122], in data set [1], the IC50 was at most 50 nM. In the case of `Cc1ccc(-c2noc([C@H]3CCC(=O)N3)n2)cc1NC(=O)c1cnc2ccccn12` (racemic) [Compound I-327], in data set [2], the “Caco-2: Efflux Ratio” value was determined as 102 and the “Caco-2: Papp A-B” value is listed as 0.27 10^−6 cm/s. Consider `COc1ccn2c(C(=O)Nc3cc(-c4noc(C[C@H](C)O)n4)ccc3C)cnc2c1` [Compound I-94], for which the IC50 in data set [1] was at most 50 nM. Regarding `COc1ccn2c(C(=O)Nc3cc(-c4noc(CC(O)C(F)F)n4)ccc3C)cnc2c1` (single isomer, unassigned) [Compound I-76], the IC50 in data set [1] is at most 50 nM. Regarding `Cc1ccc(-c2noc([C@H]3C[C@@H]3F)n2)cc1NC(=O)c1cnc2cc(COCC(C)(C)O)ccn12` [Compound I-71, N-[5-[5-[(1R,2S)-2-fluorocyclopropyl]-1,2,4-oxadiazol-3-yl]-2-methyl-phenyl]-7-[(2-hydroxy-2-methyl-propoxy)methyl]imidazo[1,2-a]pyridine-3-carboxamide], in data set [1], the IC50 was at most 50 nM. For `Cc1ccc(-c2noc(CC(C)O)n2)cc1NC(=O)c1cnc2ccccn12` (racemic) [Compound I-363], in data set [2], the “Caco-2: Efflux Ratio” value came out at 2.55 and the “Caco-2: Papp A-B” value was 8.85 10^−6 cm/s.

On to `COc1ccn2c(C(=O)Nc3cc(-c4noc(CC5CC(F)(F)C5)n4)ccc3C)cnc2c1` [Compound I-91], for which the IC50 in data set [1] is at most 50 nM. Take `CCOc1ccn2c(C(=O)Nc3cc(-c4noc([C@H]5C[C@@H]5F)n4)ccc3C)cnc2c1` [Compound I-93]: in data set [1], the IC50 was at most 50 nM. On the same count and under the same terms, for `COc1ccc2ncc(C(=O)Nc3cc(-c4noc(C[C@@H](C)O)n4)ccc3C)n2c1` [Compound I-119] the value was at most 50 nM. Regarding `Cc1ccc(-c2noc([C@H]3C[C@@H]3F)n2)cc1NC(=O)c1cnc2ccc(C#N)cn12` [Compound I-384], in data set [2], the “Caco-2: Efflux Ratio” value was 0.90 and the “Caco-2: Papp A-B” value was 16.5 10^−6 cm/s. In the same order, the values of `Cc1ccc(-c2noc([C@@H](C)O)n2)cc1NC(=O)c1cnc2ccccn12` [Compound I-270] are 3.35 and 8.5 10^−6 cm/s. `Cc1ccc(-c2noc(C3CCC3F)n2)cc1NC(=O)c1cnc2ccccn12` (racemic) [Compound I-376]: in data set [2], the “Caco-2: Efflux Ratio” value was found to be 0.85 and the “Caco-2: Papp A-B” value is reported as 19.5 10^−6 cm/s. With `Cc1nc(-c2ccc(C)c(NC(=O)c3cnc4ccc(N(C)C)cn34)c2)no1` [Compound I-205], the IC50 in data set [1] was at most 50 nM.

For the molecule `Cc1nc(-c2ccc(Cl)c(NC(=O)c3cnc4ccccn34)c2)no1` [Compound I-172], in data set [2], the “Caco-2: Efflux Ratio” value is on record as 0.49 and the “Caco-2: Papp A-B” value was 12.9 10^−6 cm/s. Take `COCCS(=O)(=O)N1CC(c2nc(-c3ccc(C)c(NC(=O)c4cnc5ccccn45)c3)no2)C1` [Compound I-235]: in data set [1], the IC50 is 50 to 500 nM. Still for that read-out and setting: for `Cc1ccc(-c2noc(C(C)NS(C)(=O)=O)n2)cc1NC(=O)c1cnc2ccccn12` (single isomer, unassigned) [Compound I-238] the value was 50 to 500 nM.

Take `Cc1ccc(-c2noc(C3(O)CC(F)(F)C3)n2)cc1NC(=O)c1cnc2ccccn12` [Compound I-380]: in data set [2], the “Caco-2: Efflux Ratio” value stood at 3.45 and the “Caco-2: Papp A-B” value is given as 7.5 10^−6 cm/s.

As for `Cc1ccc(-c2noc(C3(C)CC(F)(F)CN3)n2)cc1NC(=O)c1cnc2ccccn12` (racemic) [Compound I-328], in data set [2], the “Caco-2: Efflux Ratio” value is given as 1.02 and the “Caco-2: Papp A-B” value is recorded as 18.2 10^−6 cm/s. Take `Cc1ccc(-c2noc(CC(=O)O)n2)cc1NC(=O)c1cnc2ccccn12` [Compound I-335]: the half-maximal inhibitory concentration (IC50) in data set [1] is 50 to 500 nM. For the molecule `Cc1ccc(-c2noc(C3CC(C)(F)C3)n2)cc1NC(=O)c1cnc2ccccn12` (centres unmarked) [Compound I-387], in data set [2], the “Caco-2: Efflux Ratio” value amounted to 0.77 and the “Caco-2: Papp A-B” value is given as 14.5 10^−6 cm/s. For `CNC(=O)N1CC(c2nc(-c3ccc(C)c(NC(=O)c4cnc5ccccn45)c3)no2)C1` [Compound I-282] the same measures were 152 and 0.14 10^−6 cm/s. Regarding `COC(=O)N1CC(c2nc(-c3ccc(C)c(NC(=O)c4cnc5cc(O[C@@H](C)CO)ccn45)c3)no2)C1` (single isomer, unassigned) [Compound I-217], the IC50 in data set [1] is at most 50 nM.

Consider `Cc1ccc(-c2noc(C3COC3)n2)cc1NC(=O)c1cnc2ccccn12` [Compound I-138], for which, in data set [2], the “Caco-2: Efflux Ratio” value is recorded as 1.42 and the “Caco-2: Papp A-B” value is 16.6 10^−6 cm/s. In the same order, the values of `O=C(Nc1cc(-c2noc([C@H]3C[C@@H]3F)n2)ccc1Cl)c1cnc2ccccn12` [Compound I-341] are 0.56 and 16.2 10^−6 cm/s. For `COC(=O)N1CC(c2nc(-c3ccc(C)c(NC(=O)c4cnn5ccc(Br)cc45)c3)no2)C1` [Compound I-280], in data set [2], the “Caco-2: Efflux Ratio” value is given as 0.86 and the “Caco-2: Papp A-B” value was 14 10^−6 cm/s. With `Cc1ccc(-c2noc([C@H](C)O)n2)cc1NC(=O)c1cnc2ccccn12` [Compound I-271], in data set [2], the “Caco-2: Efflux Ratio” value is 2.93 and the “Caco-2: Papp A-B” value is on record as 6.26 10^−6 cm/s. Take `CCCNc1ccn2c(C(=O)Nc3cc(-c4noc([C@H]5C[C@@H]5F)n4)ccc3C)cnc2c1` [Compound I-304]: in data set [2], the “Caco-2: Efflux Ratio” value came out at 0.92 and the “Caco-2: Papp A-B” value was 4.31 10^−6 cm/s.

As for `Cc1ccc(-c2noc(C3CCS(=O)(=O)C3)n2)cc1NC(=O)c1cnc2ccccn12` (racemic) [Compound I-389], in data set [2], the “Caco-2: Efflux Ratio” value stood at 25.4 and the “Caco-2: Papp A-B” value is 1.25 10^−6 cm/s.

As for `Cc1ccc(-c2noc(C3CC(F)C3)n2)cc1NC(=O)c1cnc2ccccn12` (centres unmarked) [Compound I-381], in data set [2], the “Caco-2: Efflux Ratio” value was 0.97 and the “Caco-2: Papp A-B” value is reported as 17.1 10^−6 cm/s.

`Cc1ccc(-c2noc(C3CCC(F)C3)n2)cc1NC(=O)c1cnc2ccccn12` (racemic) [Compound I-319]: in data set [2], the “Caco-2: Efflux Ratio” value came out at 0.83 and the “Caco-2: Papp A-B” value is listed as 16 10^−6 cm/s.

`Cc1ccc(-c2cnc(N3CC(F)(F)C3)o2)cc1NC(=O)c1cnc2ccccn12` [Compound I-213]: the concentration for half-maximal inhibition (IC50) in data set [1] is 50 to 500 nM.

As usually defined, the IC50 is the midpoint of a concentration-inhibition curve.
